“Also recorded” adds a separate entry of the source.
Legend:
mGlu1(N264H) mutant [1] = biological target: T1, mGlu1(N264H) mutant (Rattus norvegicus, UniProt P23385, N264H); set-up: method as in Ojima et al., 2021; conditions: previously reported; ref Ojima et al., 2021; cited from earlier work
T1 construct: expressed in transfected cells; host or cells: HEK293

[2] = biological target: T2, mGlu1 V405H/D322C/D324H (HCH) mutant (Rattus norvegicus, UniProt P23385, D322C/D324H/V405H); test: Fluorescent Ca2+ imaging in transfected HEK293 cells, HCH mutant; format: cell-based; conditions: for activation of HCH mutant (Δratio): secondary screening, 3 μM metal ion or complex
T2 construct: expressed in transfected cells; host or cells: HEK293
T2 sequence (P23385 19-1199 D322C/D324H/V405H): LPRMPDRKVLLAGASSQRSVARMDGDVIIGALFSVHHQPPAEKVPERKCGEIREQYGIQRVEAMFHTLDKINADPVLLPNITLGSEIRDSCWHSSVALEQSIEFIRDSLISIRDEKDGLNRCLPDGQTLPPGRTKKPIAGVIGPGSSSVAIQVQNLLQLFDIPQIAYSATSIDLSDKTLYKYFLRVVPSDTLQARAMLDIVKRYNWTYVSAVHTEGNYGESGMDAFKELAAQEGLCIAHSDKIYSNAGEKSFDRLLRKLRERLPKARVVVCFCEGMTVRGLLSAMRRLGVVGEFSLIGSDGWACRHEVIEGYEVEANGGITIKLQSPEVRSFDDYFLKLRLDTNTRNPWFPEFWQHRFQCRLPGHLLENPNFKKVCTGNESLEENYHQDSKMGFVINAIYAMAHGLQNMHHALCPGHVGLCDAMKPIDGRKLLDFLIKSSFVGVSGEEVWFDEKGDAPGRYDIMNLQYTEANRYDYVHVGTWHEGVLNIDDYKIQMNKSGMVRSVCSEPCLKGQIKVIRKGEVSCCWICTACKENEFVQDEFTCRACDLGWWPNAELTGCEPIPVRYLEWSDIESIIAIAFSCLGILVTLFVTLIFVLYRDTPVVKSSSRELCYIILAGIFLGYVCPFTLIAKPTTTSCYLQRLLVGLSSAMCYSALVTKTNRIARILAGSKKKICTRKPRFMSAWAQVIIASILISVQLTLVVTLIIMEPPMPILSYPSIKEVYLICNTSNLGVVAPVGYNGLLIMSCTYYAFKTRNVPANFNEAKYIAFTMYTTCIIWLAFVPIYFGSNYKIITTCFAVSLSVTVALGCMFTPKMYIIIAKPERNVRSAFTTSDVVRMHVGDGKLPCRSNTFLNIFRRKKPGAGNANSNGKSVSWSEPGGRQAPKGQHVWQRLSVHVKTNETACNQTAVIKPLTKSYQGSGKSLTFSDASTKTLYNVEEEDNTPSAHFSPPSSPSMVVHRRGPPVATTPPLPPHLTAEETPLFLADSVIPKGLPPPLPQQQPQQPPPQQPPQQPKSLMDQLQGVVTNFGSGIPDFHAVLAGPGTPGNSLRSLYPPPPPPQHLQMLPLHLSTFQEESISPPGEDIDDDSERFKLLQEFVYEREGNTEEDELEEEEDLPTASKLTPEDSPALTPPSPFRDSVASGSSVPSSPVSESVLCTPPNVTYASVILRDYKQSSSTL

WT mGlu1 = biological target: T3, WT mGlu1 (Rattus norvegicus, UniProt P23385); test: Fluorescent Ca2+ imaging (Fura-2) in transfected HEK293 cells, WT mGlu1; format: cell-based; conditions: at the concentration of the mutant's EC50 (1.5 µM Cu^2+; 0.44 µM Zn^2+)
T3 construct: expressed in transfected cells; host or cells: HEK293
T3 sequence (P23385 19-1199): as the sequence (P23385 19-1199 D322C/D324H/V405H) above, with C304D, H306D, H387V counted along it

[3] = biological target: T4, mGlu1 Q73H/D324H/E325C mutant (Rattus norvegicus, UniProt P23385, D324H/E325C/Q73H); test: Fluorescent Ca2+ imaging in transfected HEK293 cells, Q73H/D324H/E325C mutant; format: cell-based; conditions: for activation of Q73H/D324H/E325C mutant (Δratio): primary screening, 3 μM metal ion or complex
T4 construct: expressed in transfected cells; host or cells: HEK293
T4 sequence (P23385 19-1199 Q73H/D324H/E325C): as the sequence (P23385 19-1199 D322C/D324H/V405H) above, with Q55H, C304D, E307C, H387V counted along it

mGlu1(N264H) mutant [4] = biological target: T1, mGlu1(N264H) mutant; test: Fluorescent Ca2+ imaging in transfected HEK293 cells, N264H mutant; format: cell-based; conditions: for activation of N264H mutant (Δratio): heat map: 3 μM metal ion or complex
mGlu1 Q73H/D324H mutant = biological target: T5, mGlu1 Q73H/D324H mutant (Rattus norvegicus, UniProt P23385, D324H/Q73H); test: Fluorescent Ca2+ imaging in transfected HEK293 cells, Q73H/D324H mutant; format: cell-based; conditions: 1 μM CuCl2
T5 construct: expressed in transfected cells; host or cells: HEK293
T5 sequence (P23385 19-1199 Q73H/D324H): as the sequence (P23385 19-1199 D322C/D324H/V405H) above, with Q55H, C304D, H387V counted along it

mGlu1 H55F/E325C mutant = biological target: T6, mGlu1 H55F/E325C mutant (Rattus norvegicus, UniProt P23385, E325C/H55F); test: Fluorescent Ca2+ imaging in transfected HEK293 cells, H55F/E325C mutant; format: cell-based; conditions: 1 μM CuCl2, compared with E325C
T6 construct: expressed in transfected cells; host or cells: HEK293
T6 sequence (P23385 19-1199 H55F/E325C): as the sequence (P23385 19-1199 D322C/D324H/V405H) above, with H37F, C304D, H306D, E307C, H387V counted along it

mGlu1 Q73A/E325C mutant = biological target: T7, mGlu1 Q73A/E325C mutant (Rattus norvegicus, UniProt P23385, E325C/Q73A); test: Fluorescent Ca2+ imaging in transfected HEK293 cells, Q73A/E325C mutant; format: cell-based; conditions: 1 μM CuCl2, compared with E325C
T7 construct: expressed in transfected cells; host or cells: HEK293
T7 sequence (P23385 19-1199 Q73A/E325C): as the sequence (P23385 19-1199 D322C/D324H/V405H) above, with Q55A, C304D, H306D, E307C, H387V counted along it

mGlu1 E325C mutant = biological target: T8, mGlu1 E325C mutant (Rattus norvegicus, UniProt P23385, E325C); test: Fluorescent Ca2+ imaging in transfected HEK293 cells, E325C mutant; format: cell-based; conditions: for activation / metal selectivity of E325C mutant (Δratio): heat map: 3 μM metal ion or complex
T8 construct: expressed in transfected cells; host or cells: HEK293
T8 sequence (P23385 19-1199 E325C): as the sequence (P23385 19-1199 D322C/D324H/V405H) above, with C304D, H306D, E307C, H387V counted along it

mGlu1 Q73H/E325C mutant = biological target: T9, mGlu1 Q73H/E325C mutant (Rattus norvegicus, UniProt P23385, E325C/Q73H); test: Fluorescent Ca2+ imaging in transfected HEK293 cells, Q73H/E325C mutant; format: cell-based; conditions: 1 μM CuCl2
T9 construct: expressed in transfected cells; host or cells: HEK293
T9 sequence (P23385 19-1199 Q73H/E325C): as the sequence (P23385 19-1199 D322C/D324H/V405H) above, with Q55H, C304D, H306D, E307C, H387V counted along it

[5] = biological target: T10, mGlu1 V405C/D322H/D324H (CHH) mutant (Rattus norvegicus, UniProt P23385, D322H/D324H/V405C); test: Fluorescent Ca2+ imaging in transfected HEK293 cells, CHH mutant; format: cell-based; conditions: secondary screening, 3 μM metal ion or complex
T10 construct: expressed in transfected cells; host or cells: HEK293
T10 sequence (P23385 19-1199 D322H/D324H/V405C): as the sequence (P23385 19-1199 D322C/D324H/V405H) above, with C304H, H387C counted along it

mGlu1 E72A/E325C mutant = biological target: T11, mGlu1 E72A/E325C mutant (Rattus norvegicus, UniProt P23385, E325C/E72A); test: Fluorescent Ca2+ imaging in transfected HEK293 cells, E72A/E325C mutant; format: cell-based; conditions: 1 μM CuCl2, compared with E325C
T11 construct: expressed in transfected cells; host or cells: HEK293
T11 sequence (P23385 19-1199 E72A/E325C): as the sequence (P23385 19-1199 D322C/D324H/V405H) above, with E54A, C304D, H306D, E307C, H387V counted along it

mGlu1 D324H/E325C mutant = biological target: T12, mGlu1 D324H/E325C mutant (Rattus norvegicus, UniProt P23385, D324H/E325C); test: Fluorescent Ca2+ imaging in transfected HEK293 cells, D324H/E325C mutant; format: cell-based; conditions: 1 μM CuCl2
T12 construct: expressed in transfected cells; host or cells: HEK293
T12 sequence (P23385 19-1199 D324H/E325C): as the sequence (P23385 19-1199 D322C/D324H/V405H) above, with C304D, E307C, H387V counted along it

[6] = biological target: T13, mGlu1 V405H/D322H/D324C (HHC) mutant (Rattus norvegicus, UniProt P23385, D322H/D324C/V405H); test: Fluorescent Ca2+ imaging in transfected HEK293 cells, HHC mutant; format: cell-based; conditions: primary screening, 3 μM metal ion or complex
T13 construct: expressed in transfected cells; host or cells: HEK293
T13 sequence (P23385 19-1199 D322H/D324C/V405H): as the sequence (P23385 19-1199 D322C/D324H/V405H) above, with C304H, H306C counted along it

mGlu1 V405H/D324H mutant = biological target: T14, mGlu1 V405H/D324H mutant (Rattus norvegicus, UniProt P23385, D324H/V405H); test: Fluorescent Ca2+ imaging in transfected HEK293 cells, V405H/D324H mutant; format: cell-based; conditions: compared with HCH mutant
T14 construct: expressed in transfected cells; host or cells: HEK293
T14 sequence (P23385 19-1199 D324H/V405H): as the sequence (P23385 19-1199 D322C/D324H/V405H) above, with C304D counted along it

mGlu1 D322C/D324H mutant = biological target: T15, mGlu1 D322C/D324H mutant (Rattus norvegicus, UniProt P23385, D322C/D324H); test: Fluorescent Ca2+ imaging in transfected HEK293 cells, D322C/D324H mutant; format: cell-based; conditions: compared with HCH mutant
T15 construct: expressed in transfected cells; host or cells: HEK293
T15 sequence (P23385 19-1199 D322C/D324H): as the sequence (P23385 19-1199 D322C/D324H/V405H) above, with H387V counted along it

mGlu1 V405H/D322C mutant = biological target: T16, mGlu1 V405H/D322C mutant (Rattus norvegicus, UniProt P23385, D322C/V405H); test: Fluorescent Ca2+ imaging in transfected HEK293 cells, V405H/D322C mutant; format: cell-based; conditions: compared with HCH mutant
T16 construct: expressed in transfected cells; host or cells: HEK293
T16 sequence (P23385 19-1199 D322C/V405H): as the sequence (P23385 19-1199 D322C/D324H/V405H) above, with H306D counted along it

[7] = biological target: T17, mGlu1 H55/P58H/N264C mutant (Rattus norvegicus, UniProt P23385, N264C/P58H); test: Fluorescent Ca2+ imaging in transfected HEK293 cells, H55/P58H/N264C mutant; format: cell-based; conditions: primary screening, 3 μM metal ion or complex
T17 construct: expressed in transfected cells; host or cells: HEK293
T17 sequence (P23385 19-1199 P58H/N264C): as the sequence (P23385 19-1199 D322C/D324H/V405H) above, with P40H, N246C, C304D, H306D, H387V counted along it

T1 sequence (P23385 19-1199 N264H): as the sequence (P23385 19-1199 D322C/D324H/V405H) above, with N246H, C304D, H306D, H387V counted along it

Compound	activation of WT mGlu1 in dose dependency (WT mGlu1)	activation of N264H mutant (Δratio) (mGlu1(N264H) mutant [4])	activation / metal selectivity of E325C mutant (Δratio) (mGlu1 E325C mutant)	activation of CHH mutant (Δratio) [5]	activation of mGlu1(N264H) mutant (mGlu1(N264H) mutant [1])	activation of HCH mutant (Δratio) [2]	activation of Q73H/D324H/E325C mutant (Δratio) [3]	activation of V405H/D322H/D324C (HHC) mutant (Δratio) [6]	other results
[Cd+2] [Cd^2+]					failed to activate	moderately			
[Cu+2] [Cu^2+, CuCl2]	not activated	not activated	high selectivity	strongly activated	failed to activate	not activated at all; also recorded: insensitive	strongly activated		EC50 ([3]; HEK293 cells, Q73H/D324H/E325C mutant, dose dependency, read-out: EC50 of activation (Δratio, [Ca2+]i)): 1500 nM; Cu^2+-induced response (Δratio) of Q73H/D324H mutant (mGlu1 Q73H/D324H mutant): loss in sensitivity; Cu^2+-induced response (Δratio) of H55F/E325C mutant (mGlu1 H55F/E325C mutant): drastically decreased; sensitivity to Cu^2+ (Δratio) of Q73A/E325C mutant (mGlu1 Q73A/E325C mutant): slightly affected; Cu^2+-induced response (Δratio) of E325C single mutant (mGlu1 E325C mutant; 1 μM CuCl2): maintained; EC50 (mGlu1 E325C mutant; HEK293 cells, E325C mutant, dose dependency, read-out: EC50 of activation (Δratio, [Ca2+]i)): 220 nM; activation of E325C mutant by Cu^2+ in the co-presence of Pd (bpy) (mGlu1 E325C mutant; [CuCl2] = 1 μM, [Pd(bpy)] = 3 μM): impaired; cell-specific activation of E325C-expressing cells in mixed culture (mGlu1 E325C mutant; three HEK293 cell types on one coverslip, sequential perfusion 60 s, 1 μM CuCl2): selectively activated; Cu^2+-induced response (Δratio) of Q73H/E325C mutant (mGlu1 Q73H/E325C mutant): prominent Cu^2+-induced responses; Cu^2+-induced response (Δratio) of E72A/E325C mutant (mGlu1 E72A/E325C mutant): drastically decreased; Cu^2+-induced response (Δratio) of D324H/E325C mutant (mGlu1 D324H/E325C mutant): prominent Cu^2+-induced responses
[Ni+2] [Ni^2+]				strongly activated	failed to activate	moderately	moderate sensitivity	showed sensitivity; also recorded: activated	
Pd-2,2′-bipyridine [Pd (bpy)]		selectively activated	not activated		selective activation	not activated at all; also recorded: insensitive	not activated	activated	activation of H55/P58H/N264C mutant (Δratio) [7]: activated; activation of N264H mutant by Pd(bpy) in the co-presence of Cu2+ or Zn2+ (mGlu1(N264H) mutant [4]; [Pd(bpy)] = 3 μM, [CuCl2] = 1 μM, [ZnCl2] = 3 μM): did not affect; cell-specific activation of N264H-expressing cells in mixed culture (mGlu1(N264H) mutant [4]; three HEK293 cell types on one coverslip, sequential perfusion 60 s, 3 μM Pd (bpy)): selectively activated

Further lines, with some results ahead:

activation of WT mGlu1 in dose dependency (WT mGlu1)	activation of N264H mutant (Δratio) (mGlu1(N264H) mutant [4])	activation / metal selectivity of E325C mutant (Δratio) (mGlu1 E325C mutant)	activation of CHH mutant (Δratio) [5]	Compound	activation of mGlu1(N264H) mutant (mGlu1(N264H) mutant [1])	activation of HCH mutant (Δratio) [2]	activation of Q73H/D324H/E325C mutant (Δratio) [3]	activation of V405H/D322H/D324C (HHC) mutant (Δratio) [6]	other results
			strongly activated	[Pd+2] [Pd^2+]	failed to activate				
not activated at all	not activated	not activated	strongly activated	[Zn+2] [Zn^2+, ZnCl2]	failed to activate	activated strongly			Zn^2+-induced response (Δratio) of V405H/D324H mutant (mGlu1 V405H/D324H mutant): significantly impaired; Zn^2+-induced response (Δratio) of D322C/D324H mutant (mGlu1 D322C/D324H mutant): significantly impaired; Zn^2+-induced response (Δratio) of V405H/D322C mutant (mGlu1 V405H/D322C mutant): significantly impaired; EC50 ([2]; HEK293 cells, HCH mutant, dose dependency, read-out: EC50 of activation (Δratio, [Ca2+]i)): 440 nM; activation of HCH mutant by Zn^2+ in the co-presence of Cu^2+ ([2]; [ZnCl2] = 3 μM, [CuCl2] = 1 μM): impaired; cell-specific activation of HCH-expressing cells in mixed culture ([2]; three HEK293 cell types on one coverslip, sequential perfusion 60 s, 3 μM ZnCl2): selectively activated

Source: publication PMC8795677 (Frontiers in Chemistry, 2022)
